# Test results taken from patent US20220064141A1, “BENZOPYRIDONE HETEROCYCLIC COMPOUND AND USE THEREOF” (BrightGene Bio-Medical Technology Co., Ltd., priority 2019, published 2022).
# Tests used:
# [1] = tested on: NCI-H358 human non-small cell lung cancer cell with KRAS G12C mutation; assay: Cell Titer-Glo cell viability, NCI-H358 cells (72 h); assay type: cell-based; settings: Homo sapiens, NCI-H358, 72 h, numeric values
# Method in brief: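 NCI-H358 (KRAS G12C) cells in DMEM with 10% FBS, seeded and left overnight at 37 °C, then treated 72 h with compound at 30 μM to 0.01 nM final. Viability from ATP content with Cell Titer-Glo after 1-4 h incubation at 37 °C; […].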
# [2] = Pharmacokinetic experiment in male CD-1 mice (IV and PO); assay type: in vivo
# Protocol: Effect Example 3: Pharmacokinetic Experiment
# (1) Compound I-2-2 of the present disclosure prepared in the above Example was used to be formulated into a clear solution (0.3 mg/mL) (2% DMSO+30% PEG 300+2% Tween 80+66% H2O) as a drug for oral administration; and was used to be formulated into a clear solution (0.2 mg/mL) (2% DMSO+30% PEG 300+2% Tween 80+66% H2O) as a drug for intravenous administration.
# (2) Male CD-1 mice (three mice in each group, weighing 27 g to 28 g) were provided by Shanghai Slack Laboratory Animal Co., Ltd. The test mice were given an environmental accommodation period of 2 to 4 days before the experiment. The mice were fasted for 8 to 12 hours before administration, and they were provided access to water (2 hours after administration) and food (4 hours after administration).
# (3) 12 hours after the mice were fasted but had free access to water, blank plasma at time 0 was taken.
# (4) The mice in step 1) were taken; and they were orally (PO) administered 3 mg/kg of the compound to be tested, or intravenously (IV) administered 1 mg/kg of the compound to be tested.
# (5) At 5 min, 15 min, 30 min, 1 h, 2 h, 4 h, 8 h, 10 h, and 24 h after oral administration, blood was successively taken from the fundus oculi venous plexus and placed in EP tubes with heparin. After centrifugation at 8000 rpm/min for 5 min, the plasma in upper layer was collected and frozen at −20° C., waiting for LC-MS/MS analysis.
# (6) WinNonlin software was used to calculate the pharmacokinetic parameters based on the blood concentration-time data obtained in […]).
# [3] = tested on: MIAPaCa-2 human-derived pancreatic cancer cells; assay: In-vivo pharmacodynamic experiment, MIAPaCa-2 subcutaneous xenograft in BALB/c nude mice; settings: for TGI (%) / TIC / Tumor volumes (mm^3) (Day 23): Day 23; for Tumor volumes (mm^3) (Day 0): baseline
# Source text: Effect Example 4: In-Vivo Pharmacodynamic Experiment
# Purpose of the experiment: To evaluate the anti-tumor effect of the test drug in female BALB/c nude mice model subcutaneously xenografted with MIAPaCa-2 human-derived pancreatic cancer cells.
# (§1) Experimental operation: BALB/c nude mice, female, 6- to 8-weeks old, weighing about 17.6 g to 21.1 g. Each mouse was subcutaneously inoculated with 5×10^6 MIAPaCa-2 cells (with Matrigel; the volume ratio was 1:1) in the right flank. The administration was initiated when the average tumor volume reached about 100 cubic millimeters. The test compounds were orally administered daily by intragastric injection (6 mice in each group) for a total of 16 or 23 days. Tumor volumes were measured three times a week. The volume was measured in cubic millimeters and calculated by the following formula: tumor volume (mm^3)=½×(a×b^2) (where a represented the long diameter and b represented the short diameter). The anti-tumor efficacy of the compound was evaluated by TGI (%).The calculation formula was as follows: TGI %=(1−T/C)×100% (T and C were the relative tumor volumes (RTV) of a mouse in the treatment group and a mouse in the control group at a specific time point), respectively. Safety was evaluated according to the changes of the body weight of the animals and animal deaths.
# [4] = Safety by body weight change and animal deaths in the MIAPaCa-2 xenograft study; assay type: in vivo; settings: for Weight at the Initiation of Administration: baseline
# Protocol: as §1
# [5] = oral daily 30 mg/kg (Day 0 to Day 9) + 15 mg/kg (Day 10 to Day 16)
# [6] = oral daily 100 mg/kg (Day 0 to Day 9) + 50 mg/kg (Day 10 to Day 16) + 100 mg (Day 17 to Day 23)
# [7] = 30 mg/kg (Day 0 to Day 9) + 15 mg/kg (Day 10 to Day 16)
# [8] = 100 mg/kg (Day 0 to Day 9) + 50 mg/kg (Day 10 to Day 16) + 100 mg (Day 17 to Day 23)
smiles,measurement,setting,value
"C=CC(=O)N1CCN(c2c(C#N)c(=O)n(-c3ccccc3C(C)C)c3cc(-c4c(C)ccc5[nH]ncc45)c(Cl)cc23)[C@@H](C)C1 (single isomer, unassigned) [Compound I-2-2]",IC50,[1],50 nM
same,F,[2]; PO 3 mg/kg,18.9%
same,AUC,"[2]; mouse, plasma, IV 1 mg/kg",867 ng·h/mL
same,Vd,"[2]; mouse, plasma, IV 1 mg/kg",1.17 L/kg
same,clearance,"[2]; mouse, plasma, IV 1 mg/kg",16.7 mL/min/kg
same,half-life,"[2]; mouse, plasma, IV 1 mg/kg",43.1 min
same,AUC,"[2]; mouse, plasma, PO 3 mg/kg",479 ng·h/mL
same,Cmax,"[2]; mouse, plasma, PO 3 mg/kg",220 ng/mL
same,Tmax,"[2]; mouse, plasma, PO 3 mg/kg",1 h
same,TGI (%),[3]; [5],36.25%
same,TIC,[3]; [5],63.75
same,Tumor volumes (mm^3) (Day 23),[3]; [5],438.75 mm^3
same,TGI (%),[3]; [6],85.02%
same,TIC,[3]; [6],14.98
same,Tumor volumes (mm^3) (Day 23),[3]; [6],179.60 mm^3
same,Tumor volumes (mm^3) (Day 0),[3]; [5],100.25 mm^3
same,Tumor volumes (mm^3) (Day 0),[3]; [6],100.06 mm^3
same,Weight Change Rate (%),[4]; [7],+7.53%
same,Weight on Day 23,[4]; [7],21.3 g
same,Weight Change Rate (%),[4]; [8],+12.32%
same,Weight on Day 23,[4]; [8],22.4 g
same,Weight at the Initiation of Administration,[4]; [7],19.8 g
same,Weight at the Initiation of Administration,[4]; [8],20.0 g
